Like-named read-outs stand apart in the source and are kept apart here. Values belong to the compound of their own block, whether it stands above or below them.
Columns and labels:
[1] = biological target: T1, human calcium channel alpha1G-c (Homo sapiens, UniProt O43497); experiment: two-electrode voltage clamp of Xenopus oocytes expressing human calcium channel alpha1G-c; format: cell-based; details: for block of peak human alpha1G-c currents / effect on peak human alpha1G-c currents: 100 μM; for block of peak current: 200 μM, clamped at −100 mV between test pulses
T1 construct: first reported cloning of a full length DNA molecule encoding the; expressed in transfected cells; host or cells: Xenopus laevis oocytes injected with cRNA transcribed from pGEM HE
T1 sequence (O43497 1-2273 isoform O43497-6): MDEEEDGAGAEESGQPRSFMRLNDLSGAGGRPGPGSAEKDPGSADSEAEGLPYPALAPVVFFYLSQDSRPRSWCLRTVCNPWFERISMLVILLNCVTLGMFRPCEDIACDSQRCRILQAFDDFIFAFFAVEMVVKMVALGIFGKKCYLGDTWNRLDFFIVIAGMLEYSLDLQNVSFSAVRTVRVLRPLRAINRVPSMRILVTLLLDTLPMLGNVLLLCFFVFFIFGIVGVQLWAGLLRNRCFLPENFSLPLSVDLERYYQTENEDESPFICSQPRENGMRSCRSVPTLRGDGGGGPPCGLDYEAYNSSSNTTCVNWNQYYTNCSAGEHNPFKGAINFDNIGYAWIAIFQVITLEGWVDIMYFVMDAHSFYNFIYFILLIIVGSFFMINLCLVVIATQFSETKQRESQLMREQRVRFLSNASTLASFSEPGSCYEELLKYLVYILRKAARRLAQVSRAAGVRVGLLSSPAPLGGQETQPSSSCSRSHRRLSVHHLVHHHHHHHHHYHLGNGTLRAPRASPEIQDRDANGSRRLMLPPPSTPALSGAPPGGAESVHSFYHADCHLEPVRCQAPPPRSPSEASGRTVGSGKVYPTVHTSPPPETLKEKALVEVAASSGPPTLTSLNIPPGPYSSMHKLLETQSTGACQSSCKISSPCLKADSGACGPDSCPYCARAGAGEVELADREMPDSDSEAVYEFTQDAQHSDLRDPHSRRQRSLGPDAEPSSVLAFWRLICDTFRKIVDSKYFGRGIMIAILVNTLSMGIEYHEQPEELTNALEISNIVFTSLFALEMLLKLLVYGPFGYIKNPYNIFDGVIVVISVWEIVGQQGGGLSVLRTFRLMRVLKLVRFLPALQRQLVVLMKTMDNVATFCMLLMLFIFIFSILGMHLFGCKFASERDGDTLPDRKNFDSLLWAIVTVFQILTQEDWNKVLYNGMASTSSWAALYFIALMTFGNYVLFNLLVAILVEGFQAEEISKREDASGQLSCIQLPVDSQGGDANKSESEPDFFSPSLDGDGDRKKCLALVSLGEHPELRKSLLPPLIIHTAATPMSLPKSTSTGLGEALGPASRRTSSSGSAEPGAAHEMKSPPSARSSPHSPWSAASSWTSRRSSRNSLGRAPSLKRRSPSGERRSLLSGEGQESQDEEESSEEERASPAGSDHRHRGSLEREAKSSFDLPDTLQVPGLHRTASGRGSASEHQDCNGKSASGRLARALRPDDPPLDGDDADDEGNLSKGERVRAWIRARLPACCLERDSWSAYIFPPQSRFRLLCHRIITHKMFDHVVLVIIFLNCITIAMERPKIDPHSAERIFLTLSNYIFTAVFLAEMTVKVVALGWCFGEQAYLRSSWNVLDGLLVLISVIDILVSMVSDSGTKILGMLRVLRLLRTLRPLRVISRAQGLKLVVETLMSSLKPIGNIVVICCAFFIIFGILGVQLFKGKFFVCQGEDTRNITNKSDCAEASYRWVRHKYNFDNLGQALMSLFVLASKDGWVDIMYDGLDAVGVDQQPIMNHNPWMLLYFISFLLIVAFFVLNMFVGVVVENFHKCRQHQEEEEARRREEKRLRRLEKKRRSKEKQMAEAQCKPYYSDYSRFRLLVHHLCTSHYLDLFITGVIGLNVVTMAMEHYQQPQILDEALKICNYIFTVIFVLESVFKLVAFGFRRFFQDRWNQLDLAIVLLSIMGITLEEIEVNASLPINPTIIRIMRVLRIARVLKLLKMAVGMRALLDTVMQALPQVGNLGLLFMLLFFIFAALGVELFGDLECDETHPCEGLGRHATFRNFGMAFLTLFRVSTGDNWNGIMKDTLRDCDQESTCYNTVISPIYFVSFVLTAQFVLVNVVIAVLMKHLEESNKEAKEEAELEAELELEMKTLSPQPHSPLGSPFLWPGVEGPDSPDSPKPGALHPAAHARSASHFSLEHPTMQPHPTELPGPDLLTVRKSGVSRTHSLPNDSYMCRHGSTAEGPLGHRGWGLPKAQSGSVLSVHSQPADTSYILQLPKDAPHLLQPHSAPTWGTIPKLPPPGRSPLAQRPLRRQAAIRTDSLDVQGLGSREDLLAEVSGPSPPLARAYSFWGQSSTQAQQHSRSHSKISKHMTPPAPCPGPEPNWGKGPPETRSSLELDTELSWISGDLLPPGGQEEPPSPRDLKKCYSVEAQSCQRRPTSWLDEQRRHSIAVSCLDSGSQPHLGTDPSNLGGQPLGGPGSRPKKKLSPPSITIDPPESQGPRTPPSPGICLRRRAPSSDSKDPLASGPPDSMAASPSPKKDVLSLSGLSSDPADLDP
Method: Xenopus laevis oocytes were prepared and injected using standard methods previously described and known in the art (Fraser, S. P. et al. (1993)). Ovarian lobes from adult female Xenopus laevis (Nasco, Fort Atkinson, Wis.) were teased apart, rinsed several times in nominally Ca-free saline containing: 82.5 mM NaCl, 2.5 mM KCl, 1 mM MgCl2, 5 mM HEPES, adjusted to pH 7.0 with NaOH (OR-2), and gently shaken in OR-2 containing 0.2% collagenase Type 1 (ICN Biomedicals, Aurora, Ohio) for 2-5 hours. When approximately 50% of the follicular layers were removed, Stage V and VI oocytes were selected and rinsed in media consisting of 75% OR-2 and 25% ND-96. The ND-96 contained: 100 mM NaCl, 2 mM KCl, 1 mM MgCl2, 1.8 mM CaCl2, 5 mM HEPES, 2.5 mM Na pyruvate, gentamicin (50 ug/ml), adjusted to pH 7.0 with NaOH. […] The synthesized cRNA was precipitated with ammonium acetate and isopropanol, and resuspended in 50 μl nuclease-free water. cRNA was quantified using formaldehyde gels (1% agarose, 1×MOPS , 3% formaldehyde) against RNA markers (Gibco BRL, 0.24-9.5 Kb).
Oocytes were injected with 50 nl of the human calcium channel alpha1G-c cRNA (about 600 ng). Control oocytes were injected with 50 nl of water. Oocytes were incubated in ND-96 before analysis for expression of the human calcium channel alpha1G-c. Incubations and collagenase digestion were carried out at room temperature. Injected oocytes were maintained in 48 well cell culture clusters (Costar; Cambridge, Mass.) at 18° C. Whole cell agonist-induced currents were measured 3-6 days after injection with a conventional two-electrode voltage clamp (GeneClamp500, Axon Instruments, Foster City, Calif.) using standard methods previously described and known in the art (Dascal, N. (1987)). The microelectrodes were filled with 3 M KCl, which had resistances of 1 and 2 MΩ. Cells were continuously perfused with ND96 at 2-5 mi/min at room temperature unless indicated. In some experiments, cells were bathed in a 40 mM Ba saline containing (in mM): 40 BaCl2, 2 KCl, 36 TEA-Cl, 5 4-AP and 5 HEPES, pH 7.6. Membrane voltage was clamped at −100 mV unless indicated.
Oocytes were bathed in ND96,

[2] = biological target: T2, human alpha1H (Homo sapiens, UniProt O95180); details: cited from earlier work; for IC50: expressed in oocytes
T2 construct: host or cells: oocytes
T2 sequence (O95180 whole entry): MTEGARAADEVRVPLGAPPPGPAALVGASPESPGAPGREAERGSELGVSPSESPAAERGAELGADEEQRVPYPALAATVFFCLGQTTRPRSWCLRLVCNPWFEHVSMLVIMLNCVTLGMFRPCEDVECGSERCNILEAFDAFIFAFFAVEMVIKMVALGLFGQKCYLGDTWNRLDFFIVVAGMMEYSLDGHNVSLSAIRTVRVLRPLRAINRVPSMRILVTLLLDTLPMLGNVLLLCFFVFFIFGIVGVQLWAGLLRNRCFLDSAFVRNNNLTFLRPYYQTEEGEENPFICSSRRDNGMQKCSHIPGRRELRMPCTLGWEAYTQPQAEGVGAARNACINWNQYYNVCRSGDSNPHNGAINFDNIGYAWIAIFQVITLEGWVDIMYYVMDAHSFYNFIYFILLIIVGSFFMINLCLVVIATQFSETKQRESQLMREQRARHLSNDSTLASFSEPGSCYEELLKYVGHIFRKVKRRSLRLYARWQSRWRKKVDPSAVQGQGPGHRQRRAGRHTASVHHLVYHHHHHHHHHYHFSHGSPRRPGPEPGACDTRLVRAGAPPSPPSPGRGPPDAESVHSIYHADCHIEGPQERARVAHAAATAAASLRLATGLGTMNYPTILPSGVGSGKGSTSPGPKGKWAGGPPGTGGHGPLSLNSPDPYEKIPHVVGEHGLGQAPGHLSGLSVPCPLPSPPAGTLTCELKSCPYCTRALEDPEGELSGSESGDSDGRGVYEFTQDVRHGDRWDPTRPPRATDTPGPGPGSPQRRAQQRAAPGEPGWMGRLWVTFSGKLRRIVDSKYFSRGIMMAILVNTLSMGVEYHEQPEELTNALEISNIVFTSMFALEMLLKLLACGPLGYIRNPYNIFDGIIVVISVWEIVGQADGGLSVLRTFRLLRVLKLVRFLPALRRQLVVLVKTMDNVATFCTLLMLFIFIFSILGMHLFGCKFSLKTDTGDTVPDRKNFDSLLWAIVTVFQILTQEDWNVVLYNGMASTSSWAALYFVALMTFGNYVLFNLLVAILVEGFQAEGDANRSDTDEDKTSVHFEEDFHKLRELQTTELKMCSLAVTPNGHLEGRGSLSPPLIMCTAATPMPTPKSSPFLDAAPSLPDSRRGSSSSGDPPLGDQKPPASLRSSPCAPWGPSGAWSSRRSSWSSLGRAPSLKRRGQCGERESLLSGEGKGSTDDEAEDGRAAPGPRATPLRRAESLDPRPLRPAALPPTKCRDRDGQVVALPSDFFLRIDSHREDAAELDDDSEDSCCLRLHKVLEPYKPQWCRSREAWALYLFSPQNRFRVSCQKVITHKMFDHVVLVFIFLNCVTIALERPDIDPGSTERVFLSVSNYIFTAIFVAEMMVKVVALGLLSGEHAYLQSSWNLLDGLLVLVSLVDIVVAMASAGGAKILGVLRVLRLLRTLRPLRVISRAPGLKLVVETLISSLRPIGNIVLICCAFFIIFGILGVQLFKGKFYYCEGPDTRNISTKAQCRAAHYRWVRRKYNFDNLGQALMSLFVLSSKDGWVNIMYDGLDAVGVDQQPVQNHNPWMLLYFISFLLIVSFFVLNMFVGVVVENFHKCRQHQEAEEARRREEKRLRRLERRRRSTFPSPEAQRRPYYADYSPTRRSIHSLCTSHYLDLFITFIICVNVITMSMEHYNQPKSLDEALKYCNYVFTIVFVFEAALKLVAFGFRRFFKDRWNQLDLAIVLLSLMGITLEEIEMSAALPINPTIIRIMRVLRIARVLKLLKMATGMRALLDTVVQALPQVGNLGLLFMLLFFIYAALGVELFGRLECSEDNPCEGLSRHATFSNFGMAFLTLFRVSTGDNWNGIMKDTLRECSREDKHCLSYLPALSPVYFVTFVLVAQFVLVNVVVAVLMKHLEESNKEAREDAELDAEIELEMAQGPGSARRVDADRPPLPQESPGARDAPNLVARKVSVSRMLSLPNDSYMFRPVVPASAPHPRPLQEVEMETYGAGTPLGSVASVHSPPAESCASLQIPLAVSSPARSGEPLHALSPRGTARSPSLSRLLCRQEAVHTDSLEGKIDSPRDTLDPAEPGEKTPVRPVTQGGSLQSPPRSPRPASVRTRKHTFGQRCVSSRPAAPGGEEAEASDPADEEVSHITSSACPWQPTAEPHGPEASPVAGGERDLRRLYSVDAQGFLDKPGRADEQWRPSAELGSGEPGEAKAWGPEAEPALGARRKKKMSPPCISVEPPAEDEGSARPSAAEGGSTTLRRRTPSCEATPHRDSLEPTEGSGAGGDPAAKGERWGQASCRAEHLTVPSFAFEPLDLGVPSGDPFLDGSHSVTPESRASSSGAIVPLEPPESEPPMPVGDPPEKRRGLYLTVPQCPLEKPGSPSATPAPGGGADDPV

[3] = test system: mouse alpha1G; details: cited from earlier work
[4] = test system: T-type calcium channels; details: range over cell types; read-out: EC50's depending on the cell type; cited from earlier work
[5] = test system: T type currents from guinea pig or rat ventrobasal thalamic neurons; parameters: maximal block: dose or concentration left out as unconfirmed; details: cited from earlier work
[6] = test system: LVCC in hippocampal CA3 neurons; details: 250 μM or 1 mM; cited from earlier work
[7] = biological target: L-type current; details: neurons from one-day-old rats; cited from earlier work
[8] = test system: T-type calcium channels from dorsal root ganglion neurons; details: neurons from one-day-old rats, cited from earlier work

block of peak human alpha1G-c currents [1]: 30+/−3%
Structure (SMILES): O=C(O)c1c2ccccc2cc2ccccc12 [9-AC, anthracene-9-carboxylic acid]

Structure (SMILES): [Cd+2] [Cd^2+]
block of peak human alpha1G-c currents [1]: 44+/−9%

Structure (SMILES): O=S(=O)(O)c1cc(N=C=S)ccc1C=Cc1ccc(N=C=S)cc1S(=O)(=O)O [DIDS, 4,4′-diisothiocyanatostilbene-2.2′-disulfonic acid]
block of peak human alpha1G-c currents [1]: 16+/−13%
effect on peak human alpha1G-c currents [1]: no effect

block of human alpha1G-c currents ([1]; 20 μM): 22+/−6%
block of peak human alpha1G-c currents [1]: 55+/−7%
block of peak current [1]: 89+/−7%
sensitivity of human alpha1G-c to block ([1]; expressed in oocytes): blocked halpha1G-c currents
Structure (SMILES): O=C(O)c1cc([N+](=O)[O-])ccc1NCCCc1ccccc1 [NPPB, 5-Nitro-2-(3-phenylpropylamino)benzoic acid]

Structure (SMILES): [Cl][Ni][Cl] [NiCl2]
block of peak current [1]: 25+/−6%
current blocked relative to 200 μM ([1]; 1 mM, same cell): about twice the current blocked by 200 μM Ni^2+
sensitivity of human alpha1G-c to block ([1]; expressed in oocytes): relatively insensitive
IC50 [2]: ~6 µM
sensitivity ([3]; as opposed to other T-type channels): very low sensitivity

Structure (SMILES): N=C(N)NC(=O)c1nc(Cl)c(N)nc1N [amiloride]
EC50 [4]: ≥ 50 µM
block of peak currents [1]: 23+/−4%
sensitivity of human alpha1G-c to block [1]: sensitive
IC50 [2]: ~20 µM

reversible block of peak currents ([1]; 600 μM, −100 mV between voltage pulses, ND96 and Ba2+ salines similar): 26+/−−3%
sensitivity of human alpha1G-c to block ([1]; expressed in oocytes): sensitive
Structure (SMILES): CCC1(C)CC(=O)NC1=O (stereo not shown) [ethosuximide]
effect on T-currents ([5]; in 25% of the TCs tested): no effect
sensitivity of all components of the LVCC [6]: insensitive
Kd [7]: 15 µM
maximal block [8]: 100%
Kd ([8]; read-out: Kd for T-current): 7 µM
block of human alpha1H currents ([2]; 300 μM): ~7%
sensitivity [2]: insensitive

Structure (SMILES): COCC(=O)O[C@]1(CCN(C)CCCc2nc3ccccc3[nH]2)CCc2cc(F)ccc2[C@@H]1C(C)C [mibefradil, (1S,2S)-2-[2-[[3-(1H-benzimidazol-2-yl)propyl]methyl-amino]ethyl]-6-fluoro-1-isopropyl-1,2,3,4-tetrahydronaphthalen-2-yl methoxyacetate]
maximal block [5]: ~40%
IC50 ([5]; majority of T type currents): ~500 µM
IC50 ([3]; most prominent (low affinity) site): ~0.4 µM

block of peak human alpha1G-c currents [1]: 0+/−2%
effect on peak human alpha1G-c currents [1]: no effect
Structure (SMILES): O=C(O)c1cccnc1Nc1cccc(C(F)(F)F)c1 [niflumic acid]
